What follows are compounds tested on HIV-1 (H9IIIB strain) (assay: Cell-Based HIV Infection Assay Using a Reporter (MT4-GFP cells)). Conditions: Human immunodeficiency virus 1, inflection point (IP) of viral growth inhibition; MT4-GFP cells infected with HIV-1 H9IIIB; 50% normal human serum; mean of at least two independent experiments; read-out: Cell Based IP (50% NHS).
Method: Cell-Based HIV Infection Assay Using a Reporter (“Cell-Based”):
MT4-GFP cells contain a stably integrated HIV long terminal repeat promoter directing the transcription of green fluorescent protein (GFP). When HIV infects the cell, GFP is produced and the cell becomes green. MT4-GFP cells (250,000 cells/mL) were bulk-infected with HIV-1 (H9IIIB strain) at low multiplicity of infection (MOI) in RPM 1640 media, supplemented with 10% FBS for 24 h. Cells were then washed once in RPMI 1640 plus 10% FBS and resuspended in RPMI plus 50% normal human serum (NHS). Test compounds were serial-diluted in DMSO using an ECHO liquid dispenser. A control well included a combination of three HIV drugs (an inhibitor of HIV protease, integrase strand transfer and a non-nucleoside reverse transcriptase inhibitor; triple drug). The infected MT4-GFP cells were added to a 384-well poly-D-lysine coated black plate with clear bottom in which the diluted test compounds were placed. The cells were seeded in the plate at 8,000 cells per well and the final DMSO concentration was 0.4%. Infected cells were quantified at both 24 and 48 h post incubation using an Acumen eX3 plate reader. Viral reproductive ratio (R0) was determined using the number of infected cells at 48 h divided by the number of infected cells at 24 h. Percent viral growth inhibition was calculated by [1−(R−Rtripledrug)/(RDMSO−Rtripledrug)]*100. Compound potency inflection point (IP) was determined with use of a 4-parameter dose response curve analysis.
Data shown in the table reflects the mean of at least two independent experiments.

First: COC(=O)N[C@H](C(=O)Nc1cccc(F)c1CC[C@H]1CN[C@@H]2CCCS(=O)(=O)N1C2)[C@@H](c1ccc(Cl)c(F)c1)C1C[C@@H](C)O[C@@H](C)C1 (stereo partly drawn) [Example 16, Methyl {(1S,2R)-2-(4-chloro-3-fluorophenyl)-2-[(2R,6S)-2,6-dimethyltetrahydro-2H-pyran-4-yl]-1-[(2-{2-[(6R,9S)-2,2-dioxido-2-thia-1,7-diazabicyclo[4.3.1]dec-9-yl]ethyl}-3-fluorophenyl)carbamoyl]ethyl}carbamate]
Second: COC(=O)N[C@H](C(=O)Nc1cc(F)ccc1CC[C@H]1CN[C@@H]2CCCS(=O)(=O)N1C2)[C@@H](c1ccc(F)cc1)C1C[C@@H](C)O[C@@H](C)C1 (stereo partly drawn) [Example 30, Methyl [(1S,2R)-2-[(2R,6S)-2,6-dimethyltetrahydro-2H-pyran-4-yl]-1-[(2-{2-[(6R,9S)-2,2-dioxido-2-thia-1,7-diazabicyclo[4.3.1]dec-9-yl]ethyl}-5-fluorophenyl)carbamoyl]-2-(4-fluorophenyl)ethyl]carbamate]
The EC50 of the first is 2-fold lower: 4.9 nM for the first, 10 nM for the second.

`CC(C)Oc1cc([C@H](c2ccc(Cl)cc2)[C@H](N)C(=O)Nc2cccc(F)c2CCC2CNC3CCCS(=O)(=O)N2C3)ccn1` (stereo partly drawn) [Example 17, (βS)-4-Chloro-N-{2-[2-(2,2-dioxido-2-thia-1,7-diazabicyclo[4.3.1]dec-9-yl)ethyl]-3-fluorophenyl}-β-[2-(1-methylethoxy)pyridin-4-yl]-L-phenylalaninamide] and `CC(C)Oc1ncc([C@H](c2ccc(F)cc2)[C@H](N)C(=O)Nc2cccc(F)c2CC[C@H]2CN[C@@H]3CCCS(=O)(=O)N2C3)cn1` [Example 23, (βS)—N-(2-{2-[(6R,9S)-2,2-Dioxido-2-thia-1,7-diazabicyclo[4.3.1]dec-9-yl]ethyl}-3-fluorophenyl)-4-fluoro-β-[2-(1-methylethoxy)pyrimidin-5-yf]-L-phenylalaninamide] are within 1.5-fold of each other in EC50: 8.9 nM for the first, 9.3 nM for the second.

First: COC(=O)N[C@H](C(=O)Nc1cccc(F)c1CCC1CNC2CCCS(=O)(=O)N1C2)[C@@H](c1ccc(Cl)cc1)c1ccnc(C(F)(F)F)c1 (stereo partly drawn) [Example 18, Methyl {(1S,2S)-2-(4-chlorophenyl)-1-({2-[2-(2,2-dioxido-2-thia-1,7-diazabicyclo[4.3.1]dec-9-yl)ethyl]-3-fluorophenyl}carbamoyl)-2-[2-(trifluoromethyl)pyridin-4-yl]ethyl}carbamate]
Second: COC(=O)N[C@H](C(=O)Nc1cccc(F)c1CCC1CNC2CCCS(=O)(=O)N1C2)[C@@H](c1ccc(Cl)cc1)c1ccc(C(F)(F)F)nc1 (stereo partly drawn) [Example 21, Methyl {(1S,2S)-2-(4-chlorophenyl)-1-({2-[2-(2,2-dioxido-2-thia-1,7-diazabicyclo[4.3.1]dec-9-yl)ethyl]-3-fluorophenyl}carbamoyl)-2-[6-(trifluoromethyl)pyridin-3-yl]ethyl}carbamate]
The EC50 of the first is 1.7-fold higher: 8.7 nM for the first, 5 nM for the second.

Compared with `COC(=O)N[C@H](C(=O)Nc1cccc(F)c1CCC1CNC2CCCS(=O)(=O)N1C2)[C@H](c1cncc(C(F)(F)F)c1)c1ccc(Cl)c(F)c1` (stereo partly drawn) [Example 19, Methyl {(1S,2S)-2-(4-chloro-3-fluorophenyl)-1-({2-[2-(2,2-dioxido-2-thia-1,7-diazabicyclo[4.3.1]dec-9-yl)ethyl]-3-fluorophenyl}carbamoyl)-2-[5-(trifluoromethyl)pyridin-3-yl]ethyl}carbamate], `COC(=O)N[C@H](C(=O)Nc1cccc(F)c1CC[C@H]1CN[C@@H]2CCCS(=O)(=O)N1C2)[C@@H](c1ccc(F)cc1)c1cnc(C(F)(F)F)nc1` [Example 22, Methyl [(1S)-2-[(2-{2-[(6R,9S)-2,2-dioxido-2-thia-1,7-diazabicyclo[4.3.1]dec-9-yl]ethyl}-3-fluorophenyl)amino]-1-{(S)-(4-fluorophenyl)[2-(trifluoromethyl)pyrimidin-5-yl]methyl}-2-oxoethyl]carbamate] is 2.9-fold higher in EC50: 5.2 nM for the first, 15 nM for the second. The first is the more potent here.

`CC(F)(F)c1cncc([C@H](c2ccc(Cl)cc2)[C@H](N)C(=O)Nc2cccc(F)c2CCC2CNC3CCCS(=O)(=O)N2C3)c1` (stereo partly drawn) [Example 20, (βS)-4-Chloro-β-[5-(1,1-difluoroethyl)pyridin-3-yl]-N-{2-[2-(2,2-dioxido-2-thia-1,7-diazabicyclo[4.3.1]dec-9-yl)ethyl]-3-fluorophenyl}-L-phenylalaninamide] and `N[C@H](C(=O)Nc1cccc(F)c1CCC1CNC2CCCS(=O)(=O)N1C2)[C@@H](c1ccc(F)cc1)c1ccc(C(F)(F)F)cc1` (stereo partly drawn) [Example 33, (βR)—N-{2-[2-(2,2-Dioxido-2-thia-1,7-diazabicyclo[4.3.1]dec-9-yl)ethyl]-3-fluorophenyl}-β-(4-fluorophenyl)-4-(trifluoromethyl)-L-phenylalaninamide] are within 1.5-fold of each other in EC50: 11 nM for the first, 8.5 nM for the second.

Going from `N[C@H](C(=O)N[C@H]1CCCC[C@@H]1CC[C@H]1CN[C@@H]2CCCS(=O)(=O)N1C2)[C@@H](c1ccc(Cl)cc1)C1CCOCC1` [Example 24, (βR)-4-Chloro-N-[(1S,2R)-2-{2-[(6R,9S)-2,2-dioxido-2-thia-1,7-diazabicyclo[4.3.1]dec-9-yl]ethyl}cyclohexyl]-β-(tetrahydro-2H-pyran-4-yl)-L-phenylalaninamide] to `COC(=O)N[C@H](C(=O)N[C@H]1CCCC[C@@H]1CC[C@H]1CN[C@@H]2CCCS(=O)(=O)N1C2)[C@@H](c1ccc(Cl)cc1)C1CCOCC1` [Example 25, Methyl [(1S,2R)-2-(4-chlorophenyl)-1-{[(1S,2R)-2-{2-[(6R,9S)-2,2-dioxido-2-thia-1,7-diazabicyclo[4.3.1]dec-9-yl]ethyl}cyclohexyl]carbamoyl}-2-(tetrahydro-2H-pyran-4-yl)ethyl]carbamate], the EC50 rises from 13 nM to 41 nM (3.2-fold).

`COC(=O)N[C@H](C(=O)Nc1ccc(F)c(F)c1CC[C@H]1CN[C@@H]2CCCS(=O)(=O)N1C2)[C@@H](c1ccc(F)cc1)[C@H]1CC[C@H](OC)CC1` [Example 26, Methyl ((2S,3R)-1-((2-(2-((6R,9S)-2,2-dioxido-2-thia-1,7-diazabicyclo[4.3.1]decan-9-yl)ethyl)-3,4-difluorophenyl)amino)-3-(4-fluorophenyl)-3-((1r,4R)-4-methoxycyclohexyl)-1-oxopropan-2-yl)carbamate] and `COC(=O)N[C@H](C(=O)Nc1ccc(F)c(F)c1CC[C@H]1CN[C@@H]2CCCS(=O)(=O)N1C2)[C@@H](c1ccc(F)cc1)C1CCOC(C)(C)C1` (stereo partly drawn) [Example 28, Methyl [(1S,2R)-2-(2,2-dimethyltetrahydro-2H-pyran-4-yl)-1-[(2-{2-[(6R,9S)-2,2-dioxido-2-thia-1,7-diazabicyclo[4.3.1]dec-9-yl]ethyl}-3,4-difluorophenyl)carbamoyl]-2-(4-fluorophenyl)ethyl]carbamate] are within 1.5-fold of each other in EC50: 11 nM for the first, 13 nM for the second.

`CO[C@H]1CC[C@H]([C@H](c2ccc(F)cc2)[C@H](N)C(=O)Nc2cncc(F)c2CC[C@H]2CN[C@@H]3CCCS(=O)(=O)N2C3)CC1` [Example 27, (2S,3R)-2-Amino-N-(4-(2-((6R,9S)-2,2-dioxido-2-thia-1,7-diazabicyclo[4.3.1]decan-9-yl)ethyl)-5-fluoropyridin-3-yl)-3-(4-fluorophenyl)-3-((1r,4R)-4-methoxycyclohexyl)propanamide] and `C[C@@H]1C[C@H]([C@H](c2ccc(Cl)cc2)[C@H](N)C(=O)Nc2cncc(F)c2CC[C@H]2CN[C@@H]3CCCS(=O)(=O)N2C3)C[C@H](C)O1` [Example 31, (2S,3R)-2-Amino-3-(4-chlorophenyl)-3-((2R,4r,6S)-2,6-dimethyltetrahydro-2H-pyran-4-yl)-N-(4-(2-((6R,9S)-2,2-dioxido-2-thia-1,7-diazabicyclo[4.3.1]decan-9-yl)ethyl)-5-fluoropyridin-3-yl)propanamide] are within 1.5-fold of each other in EC50: 7.5 nM for the first, 6.3 nM for the second.

`COC(=O)N[C@H](C(=O)N[C@H]1CCC[C@@H]1CC[C@H]1CN[C@@H]2CCCS(=O)(=O)N1C2)[C@@H](c1ccc(Cl)cc1)C1CCOC(C)(C)C1` (stereo partly drawn) [Example 29, Methyl [(1S,2R)-2-(4-chlorophenyl)-2-(2,2-dimethyltetrahydro-2H-pyran-4-yl)-1-{[(1S,2R)-2-{2-[(6R,9S)-2,2-dioxido-2-thia-1,7-diazabicyclo[4.3.1]dec-9-yl]ethyl}cyclopentyl]carbamoyl}ethyl]carbamate] and `COC(=O)N[C@H](C(=O)Nc1c(F)ccc(F)c1CC[C@H]1CN[C@@H]2CCCS(=O)(=O)N1C2)[C@@H](c1ccc(Cl)cc1)C1CCOCC1` [Example 32, Methyl [(1S,2R)-2-(4-chlorophenyl)-1-[(2-{2-[(6R,9S)-2,2-dioxido-2-thia-1,7-diazabicyclo[4.3.1]dec-9-yl]ethyl}-3,6-difluorophenyl)carbamoyl]-2-(tetrahydro-2H-pyran-4-yl)ethyl]carbamate] are within 1.5-fold of each other in EC50: 23 nM for the first, 20 nM for the second.

Work on `COC(=O)N[C@H](C(=O)Nc1cccc(F)c1CCC1CNC2CCCS(=O)(=O)N1C2)[C@@H](c1ccc(F)cc1)c1ccc2c(c1)CCC2` (stereo partly drawn) [Example 34, Methyl [(1S,2S)-2-(2,3-dihydro-1H-inden-5-yl)-1-({2-[2-(2,2-dioxido-2-thia-1,7-diazabicyclo[4.3.1]dec-9-yl)ethyl]-3-fluorophenyl}carbamoyl)-2-(4-fluorophenyl)ethyl]carbamate] yielded an EC50 of 23 nM.

From patent US10138255B2, “Piperazine derivatives as HIV protease inhibitors” (Merck Sharp & Dohme Corp., priority 2014, dated 2018)
